The text below walks through data of US10041935B2, “Identification of olfactory receptors sensitive to different odorants” (New York University, priority 2013, dated 2018).

Series [1] in a line: Fluorescence of purified CaMPARI green and red forms +/- calcium. The conditions noted are these: purified protein. The procedure: (§1) This Example describes procedures performed to characterize the in vitro properties of the fluorescent proteins. First, CaMPARI protein was expressed from the pRSET plasmid (Life Technologies, Carlsbad, Calif.) in T7 Express E. coli cells cultured for 36 h in 100 mL of autoinduction medium supplemented with 100 mg/L ampicillin. Cell pellets were lysed using B-PER (Pierce, Rockford, Ill.) supplemented with 1 mg/mL lysozyme and 1 min. of sonication. After removing insoluble material by centrifugation, CaMPARI protein was purified by immobilized metal affinity chromatograpy on nickel-charged Profinity resin (Bio-Rad, Hercules, Calif.), washing with 10 mM imidazole and eluting with 100 mM imidazole.
(§2) Using these samples, calcium titrations were used to calculate an apparent affinity of the protein for calcium ions. Aliquots of purified CaMPARI protein were mixed with Ca-EGTA solutions calculated to contain a range of free Ca^2+ ions (Life Technologies) and fluorescence was measured in a plate reader. Furthermore, to observe the photoconversion rate difference+/−calcium, purified CaMPARI in 5 mM CaCl2 or 5 mM EGTA were photoconverted using a 400 nm LED array and green and red fluorescence was measured at various time points to fit an exponential rate to the appearance of red fluorescence or the disappearance of green fluorescence.

Series [2] is described as follows: Photoconversion rate difference +/- calcium of purified CaMPARI (400 nm LED array). The conditions noted are these: purified protein, 5 mM CaCl2 vs 5 mM EGTA. As for the experimental part: as §1, §2
Series [3] is described as follows: Kinetics of fluorescence decay upon calcium release, rapid mixing with EGTA in stopped-flow device. The series is classed as binding. As for the experimental part:
(§3) Other CaMPARI variants were constructed and there include V398L, W391F+V398L, W391F, W391L, V398T, G395D, W391Y, W391Y+V398T, V398D, W391F+G395D, W391F+V398H. The variants were made based on substitutions within the M13 domain of CaMPARI that alter the affinity, cooperativity and kinetics and calcium binding. The magnitude of fluorescence change was similar for all variants. Dissociation constants for calcium (Kd) and Hill coefficients were determined from a sigmoidal fit to calcium titration data. Kinetics of fluorescence decay upon calcium release were determined by rapid mixing with EGTA in a stopped-flow device.

For series [4], the system named is cultured rat hippocampal neurons. Nature of the series: Photoconversion with field electrode stimulation in neurons expressing CaMPARI. The conditions noted are these: 83 Hz action potentials at the beginning of a 2 s photoconversion pulse. It counts as cell-based. As for the experimental part: First, cultured rat hippocampal neurons were prepared and infected with lentivirus expressing CaMPARI from the human synapsin promoter. The neurons were imaged ten days after infection with a 10× objective before and after various combinations of photoconversion and field electrode-induced action potential firing. Prior to imaging, the neuron cultures were washed with imaging buffer and spontaneous activity was blocked with a drug mix.
Following a 2 s pulse of photoconversion light (1.5 W/cm^2) to CaMPARI-expressing neurons, there was no significant decrease in green fluorescence and a small amount of red fluorescence was visible (FIG. 13A). […] Repeated exposures of CaMPARI-expressing neurons to shorter photoconversion light pulses (0.5 s) led to increasing amounts of red fluorescence signal (FIG. 16A) and red/green ratio (two left bars in FIG. 16B), but the ratio of red-to-green photoconversion between 80 Hz field stimulated and unstimulated neurons remained approximately constant (right-most bars in FIG. 16B). Field electrode stimulation of CaMPARI-expressing neurons (without application of photoconversion light) led to transient decreases in the green fluorescence signal, proportional to the number of induced action potentials (FIG. 17).

Series [5] can be described thus: Calcium titration of CaMPARI M13-domain variants, sigmoidal fit. The conditions noted are these: dissociation constant for calcium, sigmoidal fit to calcium titration data. The series is classed as binding. As for the experimental part:
as §3

The nature of series [6]: Calcium titration of purified CaMPARI protein, fluorescence in plate reader. The series is classed as binding. The procedure:
as §1, §2

For “CaMPARI v1: isolated polypeptide comprising CaM, EosFP, and M13, SEQ ID NO: 1; Calcium-Modulated Photoactivatable Ratiometric Integrator”, the “green form less fluorescent in the presence of calcium” value in series [1] (green form) is 8 fold. The “red form less fluorescent in the presence of calcium” value in series [1] (red form) was determined as 34 fold. Besides, the “faster green-to-red photoconversion rate in the presence of calcium” value in series [2] was determined as 29 fold. Moreover, in series [3], the koff worked out at 0.25 s⁻¹. The “more green-to-red photoconversion for 160 action potentials relative to 0” value in series [4] is “up to 12 fold”. The Kd was 111 nM in series [5]; 130 nM in series [6] (purified protein, without N-terminal NES, estimated from fluorescence change with increasing calcium, read-out: dissociation constant (Kd)); 106 nM in series [6] (with nuclear export signal (NES) added to the N-terminus, read-out: Kd).

As usually defined, the koff is the first-order rate constant of dissociation. In general, Kd refers to the free concentration of one partner at which half of the binding sites on the other are occupied at equilibrium, for simple one-to-one binding.
